ChEMBL document CHEMBL1201862, “PubChem BioAssay data set” (2004)
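Five compound concentrations were applied to cells in 96-well plates for 48 hours; endpoints were derived by simple linear interpolation of the resulting dose-response curve. GI50 is the concentration that inhibits growth by half.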 Active and inactive are the calls of the source. Rule as the data show it: active = GI50 up to about 1.1 µM and inactive = higher.

Assays:
Assay in all cases: inhibition of tumour cell growth, NCI panel, 48 h
[1] = tested on: UACC-62
[2] = tested on: HL-60
[3] = tested on: NCI/ADR-RES
[4] = tested on: T47D
[5] = tested on: HCC 2998
[6] = tested on: MDA-MB-231
[7] = tested on: TK-10
[8] = tested on: M14
[9] = tested on: CCRF-CEM
[10] = tested on: OVCAR-3
[11] = tested on: HOP-62
[12] = tested on: MDA-MB-435
[13] = tested on: OVCAR-5
[14] = tested on: SK-MEL-2
[15] = tested on: CAKI-1
[16] = tested on: LOX IMVI
[17] = tested on: SF-268
[18] = tested on: UACC-257
[19] = tested on: IGROV-1
[20] = tested on: COLO 205

CC/C(Cl)=N\OC(=O)Nc1ccc(C#N)cc1
GI50 [1]: 15 µM (inactive) | GI50 [2]: 2.01 µM (inactive) | GI50 [3]: 13.3 µM (inactive) | GI50 [4]: 10.8 µM (inactive) | GI50 [5]: 16.4 µM (inactive) | GI50 [6]: 15.3 µM (inactive) | GI50 [7]: 16.4 µM (inactive) | GI50 [8]: 12.3 µM (inactive) | GI50 [9]: 1.63 µM (inactive) | GI50 [10]: 18.5 µM (inactive) | GI50 [11]: 17.2 µM (inactive) | GI50 [12]: 15.6 µM (inactive) | GI50 [13]: 15.9 µM (inactive) | GI50 [14]: 15.9 µM (inactive) | GI50 [15]: 5.04 µM (inactive) | GI50 [16]: 4.47 µM (inactive) | GI50 [17]: 18.1 µM (inactive) | GI50 [18]: 16.1 µM (inactive) | GI50 [19]: 16.4 µM (inactive) | GI50 [20]: 1.82 µM (inactive)

c1ccc2c(c1)Cn1c-2nc2ccccc21
GI50 [1]: > 100 µM (inactive) | GI50 [2]: > 100 µM (inactive) | GI50 [3]: > 100 µM (inactive) | GI50 [4]: > 100 µM (inactive) | GI50 [5]: > 100 µM (inactive) | GI50 [6]: > 100 µM (inactive) | GI50 [7]: > 100 µM (inactive) | GI50 [8]: > 100 µM (inactive) | GI50 [9]: > 100 µM (inactive) | GI50 [10]: > 100 µM (inactive) | GI50 [11]: > 100 µM (inactive) | GI50 [12]: > 100 µM (inactive) | GI50 [13]: > 100 µM (inactive) | GI50 [14]: > 100 µM (inactive) | GI50 [15]: > 100 µM (inactive) | GI50 [16]: > 100 µM (inactive) | GI50 [17]: > 100 µM (inactive) | GI50 [18]: > 100 µM (inactive) | GI50 [19]: > 100 µM (inactive) | GI50 [20]: 98.4 µM (inactive)

CCOC(=O)C1C(=O)C=C(c2cc(C)ccc2O)CC1c1cccc(Br)c1 (stereo not given)
GI50 [1]: 14 µM (inactive) | GI50 [2]: 20.9 µM (inactive) | GI50 [3]: 13.4 µM (inactive) | GI50 [4]: 18.6 µM (inactive) | GI50 [5]: 17.9 µM (inactive) | GI50 [6]: 19.6 µM (inactive) | GI50 [7]: 17.7 µM (inactive) | GI50 [8]: 17.4 µM (inactive) | GI50 [9]: 19.4 µM (inactive) | GI50 [10]: 21.5 µM (inactive) | GI50 [11]: 46.7 µM (inactive) | GI50 [12]: 2.39 µM (inactive) | GI50 [13]: 25.1 µM (inactive) | GI50 [14]: 18.5 µM (inactive) | GI50 [15]: 21.9 µM (inactive) | GI50 [16]: 15.6 µM (inactive) | GI50 [17]: 19.5 µM (inactive) | GI50 [18]: 15.7 µM (inactive) | GI50 [19]: 12.6 µM (inactive) | GI50 [20]: 16.2 µM (inactive)

O=C1c2ccccc2C(=O)c2c1ccc1c2OCO1
GI50 [1]: > 100 µM (inactive) | GI50 [2]: > 100 µM (inactive) | GI50 [3]: > 100 µM (inactive) | GI50 [4]: > 100 µM (inactive) | GI50 [5]: > 100 µM (inactive) | GI50 [6]: > 100 µM (inactive) | GI50 [7]: > 100 µM (inactive) | GI50 [8]: > 100 µM (inactive) | GI50 [9]: > 10 µM (inactive) | GI50 [10]: > 100 µM (inactive) | GI50 [11]: > 100 µM (inactive) | GI50 [12]: > 100 µM (inactive) | GI50 [13]: > 100 µM (inactive) | GI50 [14]: > 100 µM (inactive) | GI50 [15]: > 100 µM (inactive) | GI50 [16]: > 100 µM (inactive) | GI50 [17]: > 100 µM (inactive) | GI50 [18]: > 100 µM (inactive) | GI50 [19]: > 100 µM (inactive) | GI50 [20]: > 100 µM (inactive)

Cc1ccc2nc(CC(=O)c3ccc4ccccc4c3)c(O)nc2c1
GI50 [1]: > 100 µM (inactive) | GI50 [2]: > 100 µM (inactive) | GI50 [3]: > 100 µM (inactive) | GI50 [4]: > 100 µM (inactive) | GI50 [5]: > 100 µM (inactive) | GI50 [6]: > 100 µM (inactive) | GI50 [7]: > 100 µM (inactive) | GI50 [8]: > 100 µM (inactive) | GI50 [9]: > 100 µM (inactive) | GI50 [10]: > 100 µM (inactive) | GI50 [11]: > 100 µM (inactive) | GI50 [12]: > 100 µM (inactive) | GI50 [13]: > 100 µM (inactive) | GI50 [14]: > 100 µM (inactive) | GI50 [15]: > 100 µM (inactive) | GI50 [16]: > 100 µM (inactive) | GI50 [17]: > 100 µM (inactive) | GI50 [18]: > 100 µM (inactive) | GI50 [19]: > 100 µM (inactive) | GI50 [20]: > 100 µM (inactive)

O=C(CCl)Nc1cc(Cl)c(Cl)cc1Cl
GI50 [1]: 1.93 µM (inactive) | GI50 [2]: 2.82 µM (inactive) | GI50 [3]: 2.05 µM (inactive) | GI50 [4]: 2.29 µM (inactive) | GI50 [5]: 4.84 µM (inactive) | GI50 [6]: 1.56 µM (inactive) | GI50 [7]: 1.83 µM (inactive) | GI50 [8]: 1.48 µM (inactive) | GI50 [9]: 0.966 µM (active) | GI50 [10]: 1.76 µM (inactive) | GI50 [11]: 2.15 µM (inactive) | GI50 [12]: 1.38 µM (inactive) | GI50 [13]: 2.12 µM (inactive) | GI50 [14]: 1.64 µM (inactive) | GI50 [15]: 2.96 µM (inactive) | GI50 [16]: 1.56 µM (inactive) | GI50 [17]: 2.3 µM (inactive) | GI50 [18]: 1.84 µM (inactive) | GI50 [19]: 1.81 µM (inactive) | GI50 [20]: 1.85 µM (inactive)

COC1/C=C\OC2(C)Oc3c(C)c(O)c4c(O)c(c(/C=N\OCCCc5ccccc5)c(O)c4c3C2=O)NC(=O)/C(C)=C\C=C/C(C)C(O)C(C)C(O)C(C)C(OC(C)=O)C1C (stereo not given)
GI50 [1]: 2.79 µM (inactive) | GI50 [2]: 3.01 µM (inactive) | GI50 [3]: 3.66 µM (inactive) | GI50 [4]: 4.45 µM (inactive) | GI50 [5]: 11.4 µM (inactive) | GI50 [6]: 2.25 µM (inactive) | GI50 [7]: 3.23 µM (inactive) | GI50 [8]: 2.71 µM (inactive) | GI50 [9]: 3.08 µM (inactive) | GI50 [10]: 3.07 µM (inactive) | GI50 [11]: 2.59 µM (inactive) | GI50 [12]: 3.25 µM (inactive) | GI50 [13]: 6.85 µM (inactive) | GI50 [14]: 2.18 µM (inactive) | GI50 [15]: 4.32 µM (inactive) | GI50 [16]: 3.33 µM (inactive) | GI50 [17]: 4.93 µM (inactive) | GI50 [18]: 5.74 µM (inactive) | GI50 [19]: 2.39 µM (inactive) | GI50 [20]: 1.78 µM (inactive)

COc1cc(CSc2ccc(O)cc2)cc(O)c1O
GI50 [1]: 22.8 µM (inactive) | GI50 [2]: 19.6 µM (inactive) | GI50 [3]: 23.8 µM (inactive) | GI50 [4]: 28.8 µM (inactive) | GI50 [5]: 29.2 µM (inactive) | GI50 [6]: 25.4 µM (inactive) | GI50 [7]: 53.1 µM (inactive) | GI50 [8]: 20.5 µM (inactive) | GI50 [9]: 8.36 µM (inactive) | GI50 [10]: 26.2 µM (inactive) | GI50 [11]: 44.7 µM (inactive) | GI50 [12]: 17.2 µM (inactive) | GI50 [13]: 23.4 µM (inactive) | GI50 [14]: 24.5 µM (inactive) | GI50 [15]: 28 µM (inactive) | GI50 [16]: 36.2 µM (inactive) | GI50 [17]: 28.8 µM (inactive) | GI50 [18]: 34 µM (inactive) | GI50 [19]: 35.3 µM (inactive) | GI50 [20]: 23.3 µM (inactive)
